Results on 6 compounds are retold here after ChEMBL document CHEMBL4043087 (J Med Chem, 2017).

Data set [1] is filed under the species Rattus norvegicus. The settings on record: in vivo, iv, 1 mg/kg.
The subject of data set [2] is Mus musculus. Description: Anesthetic activity in iv dosed ICR mouse assessed as dose required to produce 10 min of anesthesia administered 7 to 8 doses at 10 secs for each dose. It counts as functional.
For data set [3], the system named is Mus musculus. Description: Anesthetic activity in iv dosed ICR mouse assessed as onset time for loss of righting reflex administered 7 to 8 doses at 10 secs for each dose. It counts as functional.
For data set [4], the system named is Mus musculus. Description: Anesthetic activity in iv dosed ICR mouse assessed as loss of righting reflex administered 7 to 8 doses at 10 secs for each dose. It counts as functional.
Data set [5] relates to Mus musculus. Briefly: Anesthetic activity in iv dosed ICR mouse assessed as recovery time of righting reflex by measuring the ability to grip and climb a steel frame and ambulated normally administered 7 to 8 doses at 10 secs for each dose. It is filed as functional.
For data set [6], the species on record is Rattus norvegicus. Briefly: Displacement of [35S]TBPS from GABAA receptor in Wistar rat cerebral cortex membranes at 10 uM after 3 hrs by scintillation counting method. The settings on record: Membrane.
Data set [7] concerns Mus musculus. Description: Anesthetic activity in iv dosed ICR mouse assessed as anesthetic duration time administered 7 to 8 doses at 10 secs for each dose. It is filed as functional.
Data set [8] can be described thus: Clearance in Sprague-Dawley rat at 1 mg/kg, iv by LC-MS/MS analysis. It is filed as ADME, organism-based. The settings on record: in vivo.
For data set [9], the species on record is Rattus norvegicus. Briefly: Displacement of [35S]TBPS from GABAA receptor in Wistar rat cerebral cortex membranes at 1 uM after 3 hrs by scintillation counting method. Conditions: Membrane.
Data set [10] is filed under the species Rattus norvegicus. Description: Displacement of [35S]TBPS from GABAA receptor in Wistar rat cerebral cortex membranes after 3 hrs by scintillation counting method. Conditions: Membrane.
Data set [11] concerns Rattus norvegicus. Briefly: Half life in Sprague-Dawley rat at 1 mg/kg, iv by LC-MS/MS analysis. It counts as ADME, organism-based. The settings on record: in vivo.
For data set [12], the system named is Rattus norvegicus. Description: Cmax in Sprague-Dawley rat at 1 mg/kg, iv by LC-MS/MS analysis. It counts as ADME, organism-based. Further details: dose 1 mg/kg, route intravenous. The settings on record: in vivo.
Data set [13] in a line: Volume of distribution at steady state in Sprague-Dawley rat at 1 mg/kg, iv by LC-MS/MS analysis. It counts as ADME, organism-based. Conditions: in vivo, read-out: Vdss.
A short description of data set [14]: Toxicity in iv dosed ICR mouse administered 7 to 8 doses at 10 secs for each dose. It is filed as organism-based. The settings on record: in vivo.
In data set [15] the test system is Canis familiaris. Description: Anesthetic activity in Beagle dog assessed as anesthetic duration time at 75 mg/kg, administered as bolus dose. It counts as functional, Canis lupus familiaris.
The nature of data set [16]: Therapeutic index, ratio of LD50 for toxicity in mouse to ED50 for anesthetic effect in mouse.
For data set [17], the system named is Sus scrofa. Briefly: Anesthetic activity in mini pig assessed as anesthetic duration time at 22.5 mg/kg, administered as bolus dose. It counts as functional.
Data set [18] can be described thus: Toxicity in mouse. It counts as organism-based. The settings on record: in vivo.
The subject of data set [19] is Mus musculus. Description: Anesthetic activity in mouse model assessed as loss of righting reflex. It counts as functional.
Data set [20] concerns Canis familiaris. Description: Anesthetic activity in Beagle dog assessed as onset time for loss of righting reflex at 75 mg/kg, administered as bolus dose. It counts as functional, Canis lupus familiaris.
A short description of data set [21]: Therapeutic index, ratio of LD50 for toxicity in Sprague-Dawley rat to ED50 for anesthetic effect in Sprague-Dawley rat. The settings on record: read-out: Ratio LD50/ED50.
The subject of data set [22] is Sus scrofa. Briefly: Anesthetic activity in mini pig assessed as onset time for loss of righting reflex at 22.5 mg/kg, administered as bolus dose. It counts as functional.
Data set [23] concerns Rattus norvegicus. Briefly: Anesthetic activity in Sprague-Dawley rat assessed as loss of righting reflex. It counts as functional.
In data set [24] the test system is Canis familiaris. Briefly: Anesthetic activity in Beagle dog assessed as recovery time at 75 mg/kg, administered as bolus dose. It is filed as functional, Canis lupus familiaris.
Data set [25] is described as follows: Toxicity in Sprague-Dawley rat. Conditions: in vivo.
In data set [26] the test system is Sus scrofa. Description: Anesthetic activity in mini pig assessed as recovery time at 22.5 mg/kg, administered as bolus dose. It counts as functional.
In data set [27] the test system is Canis familiaris. Description: Anesthetic activity in Beagle dog assessed as recovery time at 25 mg/kg, administered as bolus dose. It counts as functional, Canis lupus familiaris.
Data set [28] concerns Sus scrofa. Briefly: Anesthetic activity in mini pig assessed as recovery time at 5 mg/kg, administered as bolus dose. It is filed as functional.
Data set [29] deals with Sus scrofa. Description: Anesthetic activity in mini pig assessed as onset time for loss of righting reflex at 5 mg/kg, administered as bolus dose. It counts as functional.
For data set [30], the system named is Canis familiaris. Description: Anesthetic activity in Beagle dog assessed as onset time for loss of righting reflex at 25 mg/kg, administered as bolus dose. It counts as functional, Canis lupus familiaris.
Data set [31] concerns Canis familiaris. Description: Anesthetic activity in Beagle dog assessed as anesthetic duration time at 25 mg/kg, administered as bolus dose. It is filed as functional, Canis lupus familiaris.
Data set [32] concerns Sus scrofa. Briefly: Anesthetic activity in mini pig assessed as anesthetic duration time at 5 mg/kg, administered as bolus dose. It counts as functional.
Data set [33] relates to Sus scrofa. Briefly: Anesthetic activity in mini pig assessed as recovery time at 4 mg/kg, administered as bolus dose. It counts as functional.
For data set [34], the system named is Canis familiaris. Briefly: Anesthetic activity in Beagle dog assessed as recovery time at 12.5 mg/kg, administered as bolus dose. It is filed as functional, Canis lupus familiaris.
Data set [35] concerns Canis familiaris. Briefly: Anesthetic activity in Beagle dog assessed as anesthetic duration time at 12.5 mg/kg, administered as bolus dose. It is filed as functional, Canis lupus familiaris.
In data set [36] the test system is Canis familiaris. Description: Anesthetic activity in Beagle dog assessed as onset time for loss of righting reflex at 12.5 mg/kg, administered as bolus dose. It counts as functional, Canis lupus familiaris.
Data set [37] concerns Sus scrofa. Briefly: Anesthetic activity in mini pig assessed as onset time for loss of righting reflex at 4 mg/kg, administered as bolus dose. It is filed as functional.
Data set [38] relates to Sus scrofa. Briefly: Anesthetic activity in mini pig assessed as anesthetic duration time at 4 mg/kg, administered as bolus dose. It counts as functional.

In the data set listed under Rattus norvegicus [1], `CC[C@@H](C)c1cccc([C@H](C)C2CC2)c1O` gave an AUCt of 78.1 ng·h/mL. The Activity in the data set on Mus musculus [2] is 7.5 mg/kg. Besides, the Time with Mus musculus [3] is on record as under 10 s; in the data set on Mus musculus [5] it was 391.29 s; in the data set with Mus musculus [7], 471.88 s. In the data set with Mus musculus [4], the ED50 worked out at 2 mg/kg. The inhibition in the data set listed under Rattus norvegicus [6] is 87%; in the data set filed under Rattus norvegicus [9] it was 23%; in the data set filed under Rattus norvegicus [10] it was “Dose-dependent effect”. In [8], the clearance was determined as 208 mL/min/kg. The compound also returned a t1/2 in the data set with Rattus norvegicus [11] of 22 min. In the data set on Rattus norvegicus [12], this compound had a Cmax of 575 ng/mL. For the same compound, the Vd in data set [13] was 3.23 L/kg. Moreover, in data set [14], the LD50 at 10 s was determined as 14.3 mg/kg.
`CC(C)c1cccc(C(C)C)c1OCOP(=O)([O-])[O-].[Na+].[Na+]` [FOSPROPOFOL DISODIUM]: the Time with Canis familiaris [15] is 80.4 min; in the data set with Sus scrofa [17], 72.6 min; with Canis familiaris [20] it was 2.1 min; with Sus scrofa [22] it was 1.6 min; in the data set with Canis familiaris [24] it was 7.3 min; in the data set with Sus scrofa [26] it was 6 min. Besides, the “Ratio LD50/ED50” value in [16] turned out to be 2.3. Besides, the LD50 in [18] is 220 mg/kg; in data set [25], 189 mg/kg. Further, the ED50 in the data set with Mus musculus [19] came to 95 mg/kg; in the data set on Rattus norvegicus [23] it was 41 mg/kg. Also, in data set [21], the selectivity ratio was found to be 4.61.
As for `CC(C)c1cccc([C@H](C)C2CC2)c1OCOP(=O)([O-])[O-].[Na+].[Na+]`, in data set [16], the “Ratio LD50/ED50” value worked out at 4.2. Besides, the LD50 in data set [18] is 86.5 mg/kg. Further, the ED50 in the data set with Mus musculus [19] came out at 20.4 mg/kg; in the data set with Rattus norvegicus [23] it was 12.9 mg/kg. For the same compound, the Time in the data set with Canis familiaris [27] came to 11.2 min; in the data set with Sus scrofa [28] it was 4.8 min; in the data set with Sus scrofa [29] it was 1.6 min; with Canis familiaris [30] it was 0.7 min; in the data set on Canis familiaris [31] it was 72.2 min; in the data set on Sus scrofa [32] it was 68.2 min. Further, the selectivity ratio in data set [21] came out at 4.74.
For the compound `C[C@@H](c1cccc([C@H](C)C2CC2)c1O)C1CC1`, the AUCt in the data set listed under Rattus norvegicus [1] is 170 ng·h/mL. Besides, the Activity in the data set on Mus musculus [2] was 5 mg/kg. In addition, the Time in the data set with Mus musculus [3] is reported as under 10 s; in the data set with Mus musculus [5] it was 61.67 s; in the data set with Mus musculus [7] it was 318.43 s. Further, the inhibition was 96% in the data set filed under Rattus norvegicus [6], 64% in the data set filed under Rattus norvegicus [9] and “Dose-dependent effect” in the data set filed under Rattus norvegicus [10]. This compound showed a clearance in data set [8] of 95 mL/min/kg. Also, the t1/2 in the data set on Rattus norvegicus [11] turned out to be 31 min. The compound further showed a Cmax in the data set with Rattus norvegicus [12] of 713 ng/mL. Moreover, in [13], the Vd was 1.92 L/kg.
In turn, `CC(C)c1cccc([C@H](C)C2CC2)c1O` [CIPEPOFOL] showed an AUCt in the data set filed under Rattus norvegicus [1] of 164 ng·h/mL. For the same compound, the Activity in the data set with Mus musculus [2] is 4.8 mg/kg. The results for the Time in the data set with Mus musculus [3], in the data set with Mus musculus [5] and in the data set with Mus musculus [7] were 21.86 s, 64.8 s and 313.43 s, respectively. The values for the inhibition in the data set filed under Rattus norvegicus [6], in the data set listed under Rattus norvegicus [9] and in the data set listed under Rattus norvegicus [10] were 85%, 34% and “Dose-dependent effect”, respectively. In addition, the clearance in [8] is 100 mL/min/kg. Besides, the t1/2 in the data set on Rattus norvegicus [11] turned out to be 28 min. The Cmax with Rattus norvegicus [12] came out at 834 ng/mL. In addition, in data set [13], the Vd is 2.02 L/kg.
For the compound `C[C@@H](c1cccc([C@H](C)C2CC2)c1OCOP(=O)([O-])[O-])C1CC1.[Na+].[Na+]`, the Time with Sus scrofa [33] turned out to be 9.6 min; with Canis familiaris [34], 3.3 min; in the data set on Canis familiaris [35], 70.2 min; in the data set on Canis familiaris [36], 0.9 min; in the data set on Sus scrofa [37] it was 3 min; in the data set with Sus scrofa [38], 65.8 min. Moreover, the “Ratio LD50/ED50” value in data set [16] turned out to be 3.6. Further, the LD50 was 42.5 mg/kg in data set [18] and 40.4 mg/kg in data set [25]. The ED50 came out at 11.7 mg/kg with Mus musculus [19] and 7.34 mg/kg in the data set on Rattus norvegicus [23]. The selectivity ratio in data set [21] was found to be 5.51.
